The source of these data is US10369138B2, “Monobactam organic compounds for the treatment of bacterial infections” (Novartis AG, priority 2014, dated 2019).

In brackets after ≈: the same amount, converted by molar mass. Some results are limits rather than exact numbers.

Common to all, as to assay type: cell-based
For assay [1], the system named is E. coli NB27273-CDY0026 (parent). Kind of assay: MIC by broth microdilution, isogenic E. coli parent strain. The following applies: Escherichia coli, read-out: Strain 1 MIC. As to the method: (§1) Bacterial isolates were cultivated from −70° C. frozen stocks by two consecutive overnight passages at 35° C. in ambient air on 5% blood agar (Remel, Lenexa, Kans.). Quality control and P. aeruginosa ATCC 27853) is from the American Type Culture Collection (ATCC; Rockville, Md.) and PAO1 was received from Dr. K. Poole.
(§2) Strain NB27273 (BW25113 pspB::Km^r) was obtained from the Keio transposon insertion collection. The strain has the pspB gene replaced by a kanamycin resistance marker (BW25113 pspB::Km^r). This strain was cured of the transposon in pspB via FLP recombinase using published methodology. The resulting strain, BW25113 pspB, was used as a host for multicopy vectors expressing key β-lactamases. Multicopy plasmids directing constitutive expression of β-lactamases were established as follows: Synthetic, codon optimized genes encoding E. coli KPC2 and SHV12 β-lactamases were made by DNA2.0 (Palo Alto, Calif.). Each of the synthetic fragments were designed to contain NotI and NcoI restriction sites at their termini, allowing ligation into a NotI/NcoI digested pET28a(+) derivative for protein expression. […] The codon optimized nucleotide sequences and relevant primer recognition information is shown below:
(§3) The PCR products were then digested with XhoI and EcoRI and ligated into similarly digested plasmid pAH63-pstS(BlaP). Plasmid pAH63-pstS(BlaP) is a derivative of plasmid pAH63 (J Bacteriol: 183(21): 6384-6393) made by cloning the TEM-1 (bla) promoter and signal peptide encoding region from plasmid pBAD (J Bacteriol. 1995 July 177(14):4121-30) into plasmid pAH63. This fragment was PCR amplified from pBAD using primer pair E192 (ttcaCTGCAGtgaacgttgcgaagcaacggC) (SEQ ID NO:13) and E194 (TCGAggatcctcgagagcaaaaacaggaaggcaaaatgccg) (SEQ ID NO:14), digested with PstI and BamHI and inserted into similarly digested plasmid pAH63. Therefore, expression of β-lactamases from pAH63-pstS(BlaP) based constructs is constitutive and the signal sequence is provided to direct these proteins to the periplasm. […] To accomplish this, the inserts encompassing the β-lactamase genes, with the associated TEM promoter and signal sequences, were PCR amplified from their corresponding vectors using primer E269 (ccgTCTAGAcggatggcctttttgcgtttc) (SEQ ID NO:15) and E202 (aatcGAATTCttactgaccattaacgcccaagc) (SEQ ID NO:16) for the KPC2 construct and E204 (aatcGAATTCttaacgctgccagtgctcaatc) (SEQ ID NO:17) for the SHV12 construct. These fragments were then digested with XbaI and EcoRI, and each was inserted into pBAD18-kan that had been digested with the same enzymes to generate a pair of multicopy vectors expressing KPC2 and SHV12 respectively. These vectors were transformed into BW25113 pspB to generate strains NB27273-CDY0033 (expressing KPC2) and NB27273-CDY0030 (expressing SHV12). The pBAD18-kan vector also contains the TEM promoter region and signal sequence, (but lacks any intact β-lactamase genes) and was transformed into BW25113 pspB using standard protocols to generate the control strain NB27273-CDY0026. […] Susceptibility Testing
(§4) Minimal Inhibitory Concentrations (MICs) were determined by the broth microdilution method in accordance with Clinical and Laboratories Institute (CLSI) guidelines. In brief, fresh overnight bacterial cultures were suspended in sterile saline, and adjusted to a 0.5 McFarland turbidity standard. Bacterial suspensions were then diluted in cation adjusted Mueller-Hinton Broth (MHB II; BBL) to yield a final inoculum of approximately 5×10^5 colony-forming units (CFU)/mL. A master plate of antibiotics was prepared at a concentration equivalent to hundred-fold the highest desired final concentration in 100% dimethyl sulfoxide (DMSO). The master antibiotic plate was then diluted by serial twofold dilution with a multichannel pipette. The resulting dilution series of compounds were diluted 1:10 with sterile water leading to a 10% DMSO final concentration.

The test system of assay [2] is E. coli NB27273-CDY0033 (KPC2). The assay is described as follows: MIC by broth microdilution, isogenic E. coli strain expressing KPC2. Particulars: Escherichia coli, read-out: Strain 2 MIC. The method, then: as §1, §2, §3, §4
The test system of assay [3] is E. coli NB27273-CDY0030 (SHV12). The assay is described as follows: MIC by broth microdilution, isogenic E. coli strain expressing SHV12. The following applies: Escherichia coli, read-out: Strain 3 MIC. As to the method:
as §1, §2, §3, §4

The next assay relates to E. coli strain 25922. The assay is described as follows: MIC by broth microdilution, E. coli strain 25922. Particulars: Escherichia coli, 25922, E. coli strain 25922; read-out: Ec 25922 (MIC). Put shortly: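 CLSI broth microdilution in cation-adjusted Mueller-Hinton broth, inoculum about 5×10^5 CFU/mL, 10% DMSO from the diluted series, 20 h at 35-37° C. MIC is the lowest concentration preventing visible growth, read by eye and at 600 nm.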

For a further assay, the system named is E. coli containing KPC-2. Kind of assay: MIC by broth microdilution, E. coli containing KPC-2 (Ec KPC2 Iso). The following applies: Escherichia coli, read-out: Ec KPC2 Iso (MIC), E. coli containing KPC-2 (carbapenemase from Klebsiella pneumoniae). Put shortly:
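Host E. coli BW25113 pspB carrying multicopy pBAD18-kan plasmid with constitutive TEM-promoter KPC-2 expression (periplasmic signal sequence); broth microdilution per CLSI in cation-adjusted Mueller-Hinton broth, inoculum ~5×10^5 CFU/mL, compounds twofold serially diluted from DMSO masters (10% DMSO in dilution series added).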

In the case of `CC(C)(O/N=C(\C(=O)N[C@@H]1C(=O)N(S(=O)(=O)O)[C@@H]1CN1CCCC1=O)c1csc(N)n1)C(=O)O` [Example 1, 2-(((Z)-(1-(2-aminothiazol-4-yl)-2-oxo-2-(((3S,4R)-2-oxo-4-((2-oxopyrrolidin-1-yl)methyl)-1-sulfoazetidin-3-yl)amino)ethylidene)amino)oxy)-2-methylpropanoic acid], the MIC is 1 µg/mL (≈ 1.93 µM) in assay [1]; 2 µg/mL (≈ 3.86 µM) in assay [2]; 2 µg/mL (≈ 3.86 µM) in assay [3]; 16 µg/mL (≈ 30.9 µM) with E. coli strain 25922; 2 µg/mL (≈ 3.86 µM) with E. coli containing KPC-2.
As for `CC(C)(O/N=C(\C(=O)N[C@@H]1C(=O)N(S(=O)(=O)O)[C@@H]1Cn1nnc(CN)n1)c1csc(N)n1)C(=O)O` [Example 4, 2-(((Z)-(2-(((2R,3S)-2-((5-(aminomethyl)-2H-tetrazol-2-yl)methyl)-4-oxo-1-sulfoazetidin-3-yl)amino)-1-(2-aminothiazol-4-yl)-2-oxoethylidene)amino)oxy)-2-methylpropanoic acid], the MIC in assay [1] was 0.5 µg/mL (≈ 0.939 µM); in assay [2], 8 µg/mL (≈ 15 µM); in assay [3] it was 2 µg/mL (≈ 3.76 µM); in the assay on E. coli strain 25922 it was 1 µg/mL (≈ 1.88 µM); in the assay on E. coli containing KPC-2 it was 8 µg/mL (≈ 15 µM).
Consider `Nc1nc(/C(=N/OC2(C(=O)O)CC2)C(=O)N[C@@H]2C(=O)N(S(=O)(=O)O)[C@@H]2CN2CCOC2=O)cs1` [Example 22, 1-(((Z)-(1-(2-aminothiazol-4-yl)-2-oxo-2-(((3S,4R)-2-oxo-4-((2-oxooxazolidin-3-yl)methyl)-1-sulfoazetidin-3-yl)amino)ethylidene)amino)oxy)cyclopropanecarboxylic acid], for which the MIC was not above 0.06 µg/mL in assay [1]; 0.125 µg/mL (≈ 0.241 µM) in assay [2]; 0.5 µg/mL (≈ 0.964 µM) in assay [3]; 0.25 µg/mL (≈ 0.482 µM) in the assay with E. coli strain 25922; 0.125 µg/mL (≈ 0.241 µM) in the assay on E. coli containing KPC-2.
With `N=C(N)NCc1cn(C[C@@H]2[C@H](NC(=O)/C(=N\OC3(C(=O)O)CC3)c3csc(N)n3)C(=O)N2S(=O)(=O)O)nn1` [Example 28, 1-(((Z)-(1-(2-aminothiazol-4-yl)-2-(((2R,3S)-2-((4-(guanidinomethyl)-1H-1,2,3-triazol-1-yl)methyl)-4-oxo-1-sulfoazetidin-3-yl)amino)-2-oxoethylidene)amino)oxy)-cyclopropanecarboxylic acid], the minimal inhibitory concentration (MIC) in assay [1] is not above 0.06 µg/mL; in assay [2], not above 0.06 µg/mL; in assay [3], 0.5 µg/mL (≈ 0.875 µM).
As to `N=C(NC1CCNCC1)c1ccc(OC[C@H](O/N=C(\C(=O)N[C@@H]2C(=O)N(S(=O)(=O)O)[C@@H]2Cn2cncn2)c2csc(N)n2)C(=O)O)cc1` [Example 31, (S)-2-(((Z)-(2-(((2R,3S)-2-((1H-1,2,4-triazol-1-yl)methyl)-4-oxo-1-sulfoazetidin-3-yl)amino)-1-(2-aminothiazol-4-yl)-2-oxoethylidene)amino)oxy)-3-(4-(N-(piperidin-4-yl)carbamimidoyl)-phenoxy)propanoic acid], the minimum inhibitory concentration (MIC) in assay [1] turned out to be 0.125 µg/mL (≈ 0.177 µM); in assay [2], 0.25 µg/mL (≈ 0.354 µM); in assay [3], 0.5 µg/mL (≈ 0.708 µM); in the assay with E. coli strain 25922, 0.25 µg/mL (≈ 0.354 µM); with E. coli containing KPC-2 it was 0.25 µg/mL (≈ 0.354 µM).
With `NC(=O)OC[C@@H]1[C@H](NC(=O)/C(=N\OCC(=O)O)c2csc(N)n2)C(=O)N1S(=O)(=O)O` [compound 2, reference compound], the values for the MIC in assay [1], in assay [2] and in assay [3] were 0.125 µg/mL (≈ 0.268 µM), 1 µg/mL (≈ 2.14 µM) and more than 32 µg/mL, respectively.
On the same counts, the results for `CC1(C)[C@H](NC(=O)/C(=N\OCc2cc(=O)c(O)cn2O)c2csc(N)n2)C(=O)N1OS(=O)(=O)O` [compound 3, reference compound] are 0.25 µg/mL (≈ 0.482 µM), 0.5 µg/mL (≈ 0.964 µM) and more than 32 µg/mL.
`CC1(C)[C@H](NC(=O)/C(=N\O[C@@H](COc2ccc(C(=N)NC3CCNCC3)cc2)C(=O)O)c2csc(N)n2)C(=O)N1OS(=O)(=O)O` [compound 4, reference compound]: the minimal inhibitory concentration (MIC) in assay [1] is not above 0.06 µg/mL; in assay [2] it was 0.25 µg/mL (≈ 0.374 µM); in assay [3], 32 µg/mL (≈ 47.9 µM).
